Tests used:
FAAH [1] = target: T1, FAAH (Mus musculus, UniProt O08914); experiment: In vivo FAAH inhibition, liver, after oral administration to mice
T1 sequence (O08914 1-579): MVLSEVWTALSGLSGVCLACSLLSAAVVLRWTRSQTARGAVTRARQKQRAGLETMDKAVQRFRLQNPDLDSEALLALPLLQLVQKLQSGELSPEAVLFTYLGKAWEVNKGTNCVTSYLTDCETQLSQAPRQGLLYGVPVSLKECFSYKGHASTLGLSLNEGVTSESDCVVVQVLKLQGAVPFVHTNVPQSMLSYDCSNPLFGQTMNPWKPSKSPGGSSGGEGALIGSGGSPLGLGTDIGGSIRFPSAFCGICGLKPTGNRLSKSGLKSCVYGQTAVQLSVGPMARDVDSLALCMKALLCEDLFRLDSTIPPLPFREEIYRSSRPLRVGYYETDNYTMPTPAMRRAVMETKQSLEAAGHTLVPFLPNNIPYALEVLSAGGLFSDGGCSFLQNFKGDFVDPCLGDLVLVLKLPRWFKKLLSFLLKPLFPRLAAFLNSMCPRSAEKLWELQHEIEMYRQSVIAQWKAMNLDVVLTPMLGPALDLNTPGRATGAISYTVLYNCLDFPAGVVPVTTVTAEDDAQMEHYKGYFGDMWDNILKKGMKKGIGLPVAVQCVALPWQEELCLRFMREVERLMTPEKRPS

FAAH [2] = target: T1, FAAH; experiment: In vivo FAAH inhibition, brain, after oral administration to mice
carboxylesterases (CEs) = experiment: CE activity in rat liver microsomes; type: biochemical; conditions: for CEs (10 μM), percent of control: 10 μM in rat liver microsomes; for CEs activity, percent of control: C inhib=10 μM in rat liver microsomes, Table 2
MAGL = target: T2, MAGL (Rattus norvegicus, UniProt Q8R431); experiment: MAGL activity in rat cerebellum cytosol; type: biochemical; conditions: for MAGL (100 μM), percent of control / MAGL activity, percent of control: C inhib=100 μM in rat cerebellum cytosol; for MAGL activity, percent of control: Table 2
T2 sequence (Q8R431 1-303): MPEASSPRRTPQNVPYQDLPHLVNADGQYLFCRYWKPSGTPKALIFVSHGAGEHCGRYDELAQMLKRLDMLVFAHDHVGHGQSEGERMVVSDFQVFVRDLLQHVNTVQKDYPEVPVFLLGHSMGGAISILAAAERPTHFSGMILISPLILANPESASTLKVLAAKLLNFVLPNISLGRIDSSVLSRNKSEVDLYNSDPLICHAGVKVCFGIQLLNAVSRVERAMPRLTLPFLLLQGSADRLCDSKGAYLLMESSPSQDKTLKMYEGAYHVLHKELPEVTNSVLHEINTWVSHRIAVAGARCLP

FAAH [3] = target: T3, FAAH (Rattus norvegicus, UniProt P97612); experiment: In vitro FAAH activity in rat brain homogenates/membranes; type: biochemical; conditions: for FAAH activity, percent of control, 10 nM / FAAH activity, percent of control, 100 nM: rat brain homogenates, 15 min pre-incubation
T3 sequence (P97612 1-579): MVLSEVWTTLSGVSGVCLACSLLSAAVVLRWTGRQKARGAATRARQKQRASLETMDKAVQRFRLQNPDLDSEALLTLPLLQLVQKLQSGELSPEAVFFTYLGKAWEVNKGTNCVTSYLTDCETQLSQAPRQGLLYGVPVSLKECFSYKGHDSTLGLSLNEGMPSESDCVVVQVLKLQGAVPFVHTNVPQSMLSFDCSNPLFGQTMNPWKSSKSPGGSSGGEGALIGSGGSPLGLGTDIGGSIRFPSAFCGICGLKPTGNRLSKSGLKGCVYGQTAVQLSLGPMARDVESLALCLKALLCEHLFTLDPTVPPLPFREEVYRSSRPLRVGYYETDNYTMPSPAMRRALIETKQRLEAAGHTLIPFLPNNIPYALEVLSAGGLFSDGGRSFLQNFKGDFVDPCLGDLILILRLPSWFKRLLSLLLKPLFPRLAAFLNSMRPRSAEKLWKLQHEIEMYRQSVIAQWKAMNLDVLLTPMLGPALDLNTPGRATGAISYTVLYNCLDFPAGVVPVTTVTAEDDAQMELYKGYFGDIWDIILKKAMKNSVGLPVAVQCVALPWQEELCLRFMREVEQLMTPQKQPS

[4] = 0.1 mg kg^−1 p.o. in mice, 8 h after administration, Table 4
[5] = 30 mg kg^−1 p.o. in mice, 1 h after administration, Table 2
[6] = 0.1 mg kg^−1 p.o. in mice, 8 h after administration, Table 5
[7] = 30 mg kg^−1 p.o. in mice, 1 h after administration (footnote f), Table 5
[8] = 0.1 mg kg^−1 p.o., mice, post-dose

Row | FAAH activity, percent of control, 10 nM (FAAH [3]; Table 2) | FAAH activity, percent of control, 100 nM (FAAH [3]; Table 2) | MAGL activity, percent of control (MAGL) | FAAH activity, percent of control, 100 nM (FAAH [3]; Table 5) | SMILES | CEs activity, percent of control (carboxylesterases (CEs)) | CEs (10 μM), percent of control (carboxylesterases (CEs); Table 5) | further results
1 |  |  |  |  | CC1(C)COCN1C(=O)n1nnc2cccnc21 [Compound 11 e] |  |  | Liver FAAH activity, percent of control (FAAH [1]; [4]): 14±7% of control; inhibition at 0.1 mg/kg (FAAH [1]; mouse, po, read-out: peripheral (liver) FAAH inhibition): > 85%; cerebral (brain) FAAH inhibition (FAAH [2]; 0.1 mg kg^−1, mouse, p.o., 8 h post-dose): over 85%; Brain FAAH activity, percent of control (FAAH [2]; [4]): 12±4% of control; CEs (10 μM), percent of control (carboxylesterases (CEs); Table 4): 61±11% of control; MAGL (100 μM), percent of control (MAGL; Table 4): 72±5% of control
2 | 62±6% of control | 15±1% of control | 58±6% of control |  | O=C(N1CCCCCCC1)n1nnc2ccccc21 [Compound 10 m] | 30±2% of control |  | 
3 | 1±0% of control | 0±0% of control | 12±4% of control |  | O=C(N1CCN(c2ccccc2)CC1)n1nnc2ccccc21 [Compound 10 j] | 28±2% of control |  | Liver FAAH activity, percent of control (FAAH [1]; [5]): 30±5% of control; Brain FAAH activity, percent of control (FAAH [2]; [5]): 88±7% of control
4 |  |  |  | 75±7% of control | CN(C(=O)n1cnc(-c2cccnc2)c1)C1CCCCC1 [Compound 8 k, N ‐Cyclohexyl‐N‐methyl‐4‐(pyridin‐3‐yl)‐1H‐imidazole‐1‐carboxamide] |  | 97±3% of control | Liver FAAH activity, percent of control (FAAH [1]; [6]): 13±4% of control; Brain FAAH activity, percent of control (FAAH [2]; [6]): 75±16% of control; MAGL (100 μM), percent of control (MAGL; Table 5): 94±4% of control
5 |  |  |  | 84±7% of control | CN(C(=O)n1cnc(-c2ccccc2)c1)c1ccccc1 [Compound 8 b, N ‐Methyl‐N,4‐diphenyl‐1H‐imidazole‐1‐carboxamide] |  | 105±5% of control | Liver FAAH activity, percent of control (FAAH [1]; [7]): 11±5^[f] Percent of control; Brain FAAH activity, percent of control (FAAH [2]; [7]): 14±17^[f] Percent of control
6 |  |  |  | 94±10% of control | CC1(C)COCN1C(=O)n1cnc(-c2ccccc2)c1 [Compound 8 f, (4,4‐Dimethyloxazolidin‐3‐yl)(4‐phenyl‐1H‐imidazol‐1‐yl)methanone] |  | 95±6% of control | Liver FAAH activity, percent of control (FAAH [1]; [6]): 53±6% of control; Brain FAAH activity, percent of control (FAAH [2]; [6]): 92±7% of control; MAGL (100 μM), percent of control (MAGL; Table 5): 92±3% of control
7 |  |  |  | 1±0% of control | O=C(N1CCN(Cc2ccccc2)CC1)n1cnc(-c2ccccc2)c1 [Compound 8 g] |  | 52±2% of control | MAGL (100 μM), percent of control (MAGL; Table 5): 61±6% of control
8 | 101±31% of control | 7±4% of control | 87±12% of control |  | O=C(Nc1cccnc1)N1CCC(Cc2cccc(Oc3ccc(C(F)(F)F)cn3)c2)CC1 [Compound 3, PF3845, reference compound] | 95±17% of control |  | Liver FAAH activity, percent of control (FAAH [1]; [4]): 7±4% of control; time of maximum inhibitory effect in the liver (FAAH [1]; [8]): 1 h; Liver FAAH activity, percent of control (FAAH [1]; [5]): 2±2% of control; inhibition at 30 mg/kg (FAAH [1]; mouse, po, read-out: FAAH inhibition in the liver): > 90%; Brain FAAH activity, percent of control (FAAH [2]; [4]): 5±1% of control; time of maximal inhibitory effect in the brain (t max) (FAAH [2]; [8]): 8 h; Brain FAAH activity, percent of control (FAAH [2]; [5]): 1±0% of control; FAAH inhibition in the brain (FAAH [2]; 30 mg kg^−1 p.o., mice, 1 h post-administration): over 90%; CEs (10 μM), percent of control (carboxylesterases (CEs); Table 4): 95±17% of control; MAGL (100 μM), percent of control (MAGL; Table 4): 87±12% of control
9 |  |  |  | 104±18% of control | CN(C(=O)n1cnc(-c2ccccc2)c1)C1CCOCC1 [Compound 8 i] |  | 96±7% of control | Liver FAAH activity, percent of control (FAAH [1]; [6]): 12±4% of control; Brain FAAH activity, percent of control (FAAH [2]; [6]): 38±18% of control; MAGL (100 μM), percent of control (MAGL; Table 5): 96±1% of control
10 | 0±0% of control | 0±0% of control | 2±2% of control |  | CN(Cc1ccccc1)C(=O)n1nnc2ccccc21 [Compound 10 f] | 24±1% of control |  | Liver FAAH activity, percent of control (FAAH [1]; [5]): 6±2% of control; Brain FAAH activity, percent of control (FAAH [2]; [5]): 1±0% of control
11 |  |  |  | 37±3% of control | CN(C(=O)n1cnc(-c2ccccc2)c1)C1CCCCC1 [Compound 8 j] |  | 90±11% of control | Liver FAAH activity, percent of control (FAAH [1]; [6]): 33±2% of control; Brain FAAH activity, percent of control (FAAH [2]; [6]): 86±5% of control; MAGL (100 μM), percent of control (MAGL; Table 5): 91±3% of control
12 | 13±1% of control | 2±1% of control | 4±1% of control |  | O=C(NCc1ccccc1)n1nnc2ccccc21 [Compound 10 e] | 67±4% of control |  | Liver FAAH activity, percent of control (FAAH [1]; [5]): 84±6% of control; Brain FAAH activity, percent of control (FAAH [2]; [5]): 87±7% of control
13 | 35±3% of control | 2±1% of control | 70±6% of control |  | CN(C(=O)n1nnc2ccccc21)c1ccc(F)cc1F [Compound 10 b, N ‐(2,4‐Difluorophenyl)‐N‐methyl‐1H‐benzo[d][1,2,3]triazole‐1‐carboxamide] | 40±1% of control |  | 
14 | 71±2% of control | 17±3% of control | 84±25% of control |  | CC1(C)OCCN1C(=O)n1nnc2ccccc21 [Compound 10 o] | 60±7% of control |  | 
15 | 42±12% of control | 1±0% of control | 73±4% of control |  | CN(C(=O)n1nnc2ccccc21)c1ccccc1 [Compound 10 a] | 31±2% of control |  | Liver FAAH activity, percent of control (FAAH [1]; [5]): 34±5% of control; Brain FAAH activity, percent of control (FAAH [2]; [5]): 34±9% of control; IC50 (FAAH [3]): 7 nM; IC50 (carboxylesterases (CEs); read-out: CE IC50, rat liver microsomes): > 1000 nM; IC50 (MAGL): > 100000 nM
16 |  |  |  |  | CN(C(=O)n1ccnc1)c1ccccc1 [Compound 8 a, N ‐Methyl‐N‐phenyl‐1H‐imidazole‐1‐carboxamide] |  |  | inhibition at 10 µM (FAAH [3]; read-out: FAAH inhibition): 88%
17 |  | 76±0% of control |  |  | COc1cc(OC)cc(N(C)C(=O)n2nnc3ccccc32)c1 [Compound 10 c] |  |  | 
18 |  | 100±5% of control |  |  | O=C(Nc1ccc(F)cc1F)n1nnc2ccccc21 [Compound 10 d, N ‐(2,4‐Difluorophenyl)‐1H‐benzo[d][1,2,3]triazole‐1‐carboxamide] |  |  | 
19 |  | 71±7% of control | 35±5% of control |  | C[C@@H]1CCC[C@H](C)N1C(=O)n1nnc2ccccc21 [Compound 10 n] | 28±1% of control |  | 
